Reference: patent US20240309015A1, “Methods for the Treatment of Fibrotic Disease” (SHY Therapeutics, LLC, priority 2021, published 2024)

Tests used:
IL-6 = experiment: Mouse IL6 Quantification Assay (LPS-stimulated RAW 264.7); type: cell-based; parameters: dose or concentration left out as unconfirmed; conditions: RAW264.7, ELISA, read-out: IL-6: % inh.
Smad2/3 phosphorylation = experiment: Phospho-Smad2/3 Inhibition Assay in PANC-1; type: cell-based; conditions: Homo sapiens; 10 μM compound, 3 h; TGF-b1 stimulated PANC-1; western blot; read-out: % inh of Smad2/3 phosphorylation in PANC-1
Description: Cell lines: Human tumor-derived pancreatic cancer cell line Panc-1 and mouse muscle myoblast C2C12 were purchased from American Type Culture Collection and grown in complete DMEM-High Glucose, supplemented with penicillin (100 U/mL), streptomycin (100 μg/mL), and 10% heat-inactivated FBS at 37° C. in a humidified incubator with 5% CO2.
Method: Cells were plated at 350000 cells/well density in a 12-well plate, allowed 3 hours to adhere to the plate, then starved in the appropriate medium in the presence of 0.5% FBS overnight. The small molecules to be tested were added to the cells in the final concentration of 10 μM in the presence of 0.3% DMSO for 3 hours incubation at 37° C. For IC50 value determination, serial dilutions of compounds were added to cells under the same conditions. Next, Panc-1 cells were stimulated with 10 ng/ml TGF-b1 for 1 hour, and C2C12 cells were stimulated with 10 ng/ml TGF-b1 for 20 minutes (recombinant human TGF-b1, R&D Systems). After stimulation cells were lysed with lysis buffer containing 1% Triton X-100, EDTA, and Halt™ Protease & Phosphatase Inhibitor Cocktail (Thermo Scientific). Protein concentration was assessed by BCA protein assay (Thermo Scientific). Phosphorylation level of Smad2/Smad3 was determined by western blot.
Western blot protocol: Equal amounts of protein (15-50 μg) were separated by SDS-PAGE and transferred to nitrocellulose membranes (Invitrogen by Thermo Fisher Scientific). The membrane was stained with Ponceau S Stain (Boston BioProducts) to verify uniform protein loading. Membranes were blocked with 10% milk and phosphorylation levels of Smad2/Smad3 were assessed by incubating overnight at 4° C. with the following antibodies: Phospho-Smad2 (Ser465/467) and Phosph-Smad3 (Ser423/425), both from Cell Signaling Technology. Then the membranes were incubated with HRP-conjugated secondary antibody (Jackson Immunoresearch, West Grove, PA). Bands were incubated in Amersham ECL Prime Western Blotting Detection Reagent (GE Healthcare) and visualized using the ChemiDoc MP imaging system (Bio-Rad).

KRas G12D mutant = experiment: Ras GTP Binding Domain Inhibition Assay, KRas G12D mutant; conditions: at 20 μM; for KRas G12D mutant + SOS: % inh.: with SOS; for KRas G12D mutant: % inh.: without SOS
Outline: (§1)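 Compounds were tested at 20 μM final, or as dilution series for IC50, against nickel-plate-captured His-tagged GTPase proteins for 3 h at room temperature. Sos exchange factor could be present for the last hour. Labelled GTP (100 nM Cy3 or Cy5) was then bound for 45 min, wells were washed, and retained fluorescence was measured.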

TNFα = experiment: Mouse TNF Alpha Quantification Assay (LPS-stimulated RAW 264.7); type: cell-based; parameters: dose or concentration left out as unconfirmed; conditions: RAW264.7, ELISA, read-out: TNFα: % inh.
Rho-A = experiment: Ras GTP Binding Domain Inhibition Assay, Rho-A; conditions: at 20 μM; without SOS
Outline: as §1

KRas wild type = experiment: Ras GTP Binding Domain Inhibition Assay, KRas wild type; conditions: at 20 μM; for KRas wild type + SOS: % inh.: with SOS; for KRas wild type: % inh.: without SOS
Outline: as §1

KRas G12C mutant = experiment: Ras GTP Binding Domain Inhibition Assay, KRas G12C mutant; conditions: at 20 μM; for KRas G12C mutant + SOS: % inh.: with SOS; for KRas G12C mutant: % inh.: without SOS
Outline: as §1

SMILES	inhibition (IL-6) [%]	inhibition at 10 µM (Smad2/3 phosphorylation) [%]	KRas G12D mutant + SOS: % inh. (KRas G12D mutant; Table 7)	KRas G12D mutant + SOS: % inh. (KRas G12D mutant; Table 8)	KRas G12D mutant: % inh. (KRas G12D mutant; Table 7)	KRas G12D mutant: % inh. (KRas G12D mutant; Table 8)	inhibition (TNFα) [%]	Rho-A: % inh. (Rho-A)	KRas wild type + SOS: % inh. (KRas wild type)	KRas wild type: % inh. (KRas wild type)	KRas G12C mutant + SOS: % inh. (KRas G12C mutant)	KRas G12C mutant: % inh. (KRas G12C mutant)
Cc1c(-c2ccn(C(C)C)n2)sc2nc(-c3nccn3C)nc(NCC3CN(C)CCO3)c12 (racemic) [Compound 25, rac-6-(1-Isopropyl-1H-pyrazol-3-yl)-5-methyl-2-(1-methyl-1H-imidazol-2-yl)-N-((4-methylmorpholin-2-yl)methyl)thieno[2,3-d]pyrimidin-4-amine]	76 to 100	0	D (D = 76-100% inhibition)	D (D = 76-100% inhibition)	D (D = 76-100% inhibition)	D (D = 76-100% inhibition)	46 to 75	D (D = 76-100% inhibition)	D (D = 76-100% inhibition)	D (D = 76-100% inhibition)	D (D = 76-100% inhibition)	D (D = 76-100% inhibition)
COc1cc(-c2sc3nc(-c4nccn4C)nc(N[C@@H]4CC[C@@H](OC)C4)c3c2-c2ccccc2)ccn1 (racemic) [Compound 47, N-((1R,3R)-3-Methoxycyclopentyl)-6-(2-methoxypyridin-4-yl)-2-(1-methyl-1H-imidazol-2-yl)-5-phenylthieno[2,3-d]pyrimidin-4-amine]		76 to 100	D (D = 76-100% inhibition)	D (D = 76-100% inhibition)	C (C = 46-75% inhibition)	C (C = 46-75% inhibition)		C (C = 46-75% inhibition)	D (D = 76-100% inhibition)	D (D = 76-100% inhibition)	D (D = 76-100% inhibition)	C (C = 46-75% inhibition)
COCCCCn1c(-c2nccn2C)nc2sc(-c3ccn(C(C)C)n3)c(C)c2c1=O [Compound 33, 6-(1-Isopropyl-1H-pyrazol-3-yl)-3-(4-methoxybutyl)-5-methyl-2-(1-methyl-1H-imidazol-2-yl)thieno[2,3-d]pyrimidin-4(3H)-one]	46 to 75	0	0 (0 = 0% inhibition)	0 (0 = 0% inhibition)	0 (0 = 0% inhibition)	0 (0 = 0% inhibition)	0	0 (0 = 0% inhibition)	A (A = 1-25% inhibition)	0 (0 = 0% inhibition)	A (A = 1-25% inhibition)	0 (0 = 0% inhibition)
COCCCCOc1nc(-c2nccn2C)nc2sc(-c3ccn(C(C)C)n3)c(C)c12 [Compound 34, 6-(1-Isopropyl-1H-pyrazol-3-yl)-4-(4-methoxybutoxy)-5-methyl-2-(1-methyl-1H-imidazol-2-yl)thieno[2,3-d]pyrimidine]	76 to 100	0	0 (0 = 0% inhibition)	0 (0 = 0% inhibition)	A (A = 1-25% inhibition)	A (A = 1-25% inhibition)	0	0 (0 = 0% inhibition)	0 (0 = 0% inhibition)	A (A = 1-25% inhibition)	A (A = 1-25% inhibition)	0 (0 = 0% inhibition)
COc1cc(-c2sc3nc(-c4nccn4C)nc(N[C@H]4C[C@H](OC)C4)c3c2-c2ccccc2)ccn1 [Compound 46, N-((1r,3r)-3-Methoxycyclobutyl)-6-(2-methoxypyridin-4-yl)-2-(1-methyl-1H-imidazol-2-yl)-5-phenylthieno[2,3-d]pyrimidin-4-amine]		76 to 100	C (C = 46-75% inhibition)	C (C = 46-75% inhibition)	C (C = 46-75% inhibition)	C (C = 46-75% inhibition)		C (C = 46-75% inhibition)	D (D = 76-100% inhibition)	C (C = 46-75% inhibition)	D (D = 76-100% inhibition)	B (B = 26-45% inhibition)
COc1cc(-c2sc3nc(-c4nccn4C)nc(N[C@@H]4CC[C@H](OC)C4)c3c2-c2ccccc2)ccn1 (racemic) [Compound 44, rac-N-((1R,3S)-3-Methoxycyclopentyl)-6-(2-methoxypyridin-4-yl)-2-(1-methyl-1H-imidazol-2-yl)-5-phenylthieno[2,3-d]pyrimidin-4-amine]		76 to 100	C (C = 46-75% inhibition)	C (C = 46-75% inhibition)	D (D = 76-100% inhibition)	D (D = 76-100% inhibition)		0 (0 = 0% inhibition)	D (D = 76-100% inhibition)	C (C = 46-75% inhibition)	D (D = 76-100% inhibition)	B (B = 26-45% inhibition)
COC1CCCN(c2nc(-c3nccn3C)nc3sc(-c4ccn(C(C)C)n4)c(C)c23)C1 (racemic) [Compound 14, rac-6-(1-Isopropyl-1H-pyrazol-3-yl)-4-(3-methoxypiperidin-1-yl)-5-methyl-2-(1-methyl-1H-imidazol-2-yl)thieno[2,3-d]pyrimidine]	76 to 100	46 to 75					26 to 45	B (B = 26-45% inhibition)	D (D = 76-100% inhibition)	0 (0 = 0% inhibition)	D (D = 76-100% inhibition)	B (B = 26-45% inhibition)
COc1nccc(-c2sc3nc(-c4nccn4C)nc(N[C@H]4C[C@H](OC)C4)c3c2-c2ccccc2)c1F [Compound 45, 6-(3-Fluoro-2-methoxypyridin-4-yl)-N-((1r,3r)-3-methoxycyclobutyl)-2-(1-methyl-1H-imidazol-2-yl)-5-phenylthieno[2,3-d]pyrimidin-4-amine]		76 to 100	C (C = 46-75% inhibition)	C (C = 46-75% inhibition)	C (C = 46-75% inhibition)	C (C = 46-75% inhibition)		C (C = 46-75% inhibition)	D (D = 76-100% inhibition)	C (C = 46-75% inhibition)	D (D = 76-100% inhibition)	B (B = 26-45% inhibition)
